Measured values reported in patent US7462618B2, “Treatment of inflammatory autoimmune diseases with alpha-adrenergic antagonists and beta-adrenergic agonists” (Sun Health Research Institute, priority 2003, dated 2008).

How the values were obtained:
Lewis rats with AA [1] = experiment: Adjuvant-induced arthritis, dorsoplantar footpad width (Example 1); assay type: in vivo, rat; details: single drug i.p. twice a day from day 12; by day 28 post-adjuvant injection
Protocol: Lewis rats with AA, a model for RA, were used to examine the combined action of the β2-adrenergic receptor agonist terbutaline and the non-specific α-AR antagonist phentolamine. AA was induced in adult male Lewis rats (200-225 gm) by a base of the tail intradermal injection of complete Freund's adjuvant (CFA). The CFA (0.03 g dried and heat killed Mycobacterium butyricum (Difco, Detroit, Mich.) emulsified in 10 ml sterile mineral oil) was prepared by grinding the M. butyricum with a mortar and pestle until the bacterial cell wall turned from a light beige to an eggshell white powder. The mineral oil was then slowly worked into the bacterial cell wall using the mortar and pestle. The suspension was treated with a sonic dismembraner for 5 minutes to ensure that the bacterial cell wall remained suspended in the mineral oil for animal injections. While there was variability in the severity of disease development between the preparations of adjuvant, there was very little variability within individual batches. […] The inflammatory response in the arthritic rats was assessed by routine methods previously described. Dorsoplantar width of the hind feet were measured using a Mitutoyo Corporation dial thickness gauge, beginning the day of CFA-immunization and continued approximately every other day until sacrifice. […]

Lewis rats with AA [2] = experiment: Adjuvant-induced arthritis, radiographic scores of hind limbs (Example 1); assay type: in vivo, rat; details: i.p. twice a day from day 12; day 28
Protocol: Lewis rats with AA, a model for RA, were used to examine the combined action of the β2-adrenergic receptor agonist terbutaline and the non-specific α-AR antagonist phentolamine. AA was induced in adult male Lewis rats (200-225 gm) by a base of the tail intradermal injection of complete Freund's adjuvant (CFA). The CFA (0.03 g dried and heat killed Mycobacterium butyricum (Difco, Detroit, Mich.) emulsified in 10 ml sterile mineral oil) was prepared by grinding the M. butyricum with a mortar and pestle until the bacterial cell wall turned from a light beige to an eggshell white powder. The mineral oil was then slowly worked into the bacterial cell wall using the mortar and pestle. The suspension was treated with a sonic dismembraner for 5 minutes to ensure that the bacterial cell wall remained suspended in the mineral oil for animal injections. While there was variability in the severity of disease development between the preparations of adjuvant, there was very little variability within individual batches. All animals in each experiment were challenged with the same preparation of adjuvant and 100% of the animals developed arthritis. Phentolamine (an α-adrenergic receptor antagonist) and terbutaline (a β2-adrenergic receptor agonist) were obtained from Sigma Chemical Company (St. Louis, Mo.). Both adrenergic drugs were dissolved in 0.01 mM ascorbic acid in 0.9% sterile, endotoxin-free saline. Adrenergic therapy with phentolamine and/or terbutaline or vehicle was started on day 12 post-immunization, the time of disease onset, and continued until sacrifice. The dose of phentolamine (500 μg/Kg/day) and/or terbutaline (600 μg/day) were administered by intraperitoneal (i.p.) injections twice a day in a total volume of 500 μl per injection. […] X-rays were evaluated using a grading scale modified from Ackerman and coworkers. […] The radiographs were scored for each of the following characteristics: (1) swelling as indicated by the width of soft tissue shadows and alterations in the normal configuration of the soft tissue planes; (2) osteoporosis as measured by bone density (recognized by increases in radiolucency relative to uninvolved adjacent bone); (3) cartilage loss shown by narrowing of the joint spaces; and (4) heterotopic ossification defined as proliferation of new bone tissue (fine ossified line paralleling normal bone but not contiguous with calcified area of the bone itself). The radiographic scores for each category were added for both hind limbs giving a maximum score of 40, and the individual scores for each animal were then averaged within the treatment groups and expressed as a mean±standard error of the mean (SEM), and subjected to Kruskal-Wallis statistical analysis (non-parametric statistic equivalent to an ANOVA; p<0.05) followed by Dunn post-hoc testing. […]

IL-10/TNFα = experiment: Ex vivo IL-10 and TNFα production by cells of treated AA rats (sandwich ELISA); assay type: in vivo, rat; details: for Ratio of IL-10/TNFα: cells cultured 24 h, mean ± SEM, N = 6
Description: To determine if the adrenergic drug treatments were able to modify cytokine patterns in the secondary lymphoid organs and systemically in the blood, pro- and anti-inflammatory cytokine profiles were obtained ex vivo from cells harvested from the draining (inguinal and poplitial) lymph nodes, spleen and the PBMC from the animals described above. All tissue culture media and supplements were obtained from Gibco BRL (Rockville, Md.) unless otherwise stated. OPTIA sandwich ELISA kits for IL-10 and TNFα were purchased from Pharmingen (San Diego, Calif.). The spleen and lymph nodes were aseptically removed from the animal and placed into Hank's balanced salt solution (HBSS). The spleens were placed in a stomacher bag and homogenized for 30 seconds. […] The collected cells were centrifuged and re-suspended in 5 ml of a NH4Cl hypotonic buffer for 3 min to lyse the red blood cells. The cells were washed 2× with 10 ml HBSS, centrifuged and re-suspended into complete RPMI 1640 media supplemented with 5% fetal calf serum and 1% antibiotic/antimycotic. The draining (inguinal and poplitial) lymph nodes were placed into sterile etri dishes containing 5 ml HBSS. […] The homogenates then were passed through a nylon mesh, centrifuged and re-suspended in 5 ml HBSS. The cells then were centrifuged and re-suspended into complete RPMI 1640 media supplemented with 5% fetal calf serum and 1% antibiotic/antimycotic. PBMCs: Blood was collected using cardiac puncture into a 7 ml lithium heparin vaccutainer tubes. The tubes were inverted 7 times and then spun down at 1000 rpm for 15 minutes at 10° C. The buffy coat was removed using a 2 ml pipette and placed into a sterile 15 ml tube containing 10 ml of a NH4Cl hypotonic buffer for 3 min to lyse the red blood cells. The peripheral blood mononuclear cells (PBMC) were centrifuged and re-suspended in 10 ml HBSS. The PBMC were washed three more times with 10 ml HBSS, centrifuged and re-suspended into complete RPMI 1640 media supplemented with 5% fetal calf serum and 1% antibiotic/antimycotic. The prepared cells were counted using a hemocytometer, then brought to the concentration of 2×10^6 cells/ml. Two ml of the cell preparation were plated into 24 well plates (Falcon, Oxnard, Calif.), and in placed in an incubator 7% CO2, 37° C., for 24 h. After 24 h the culture supernatants were harvested and placed in the freezer at -70° C. until ELISA assay. Optia kits for the detection of IL-10 and TNFα were obtained from BD Pharmingen (Los Angeles, Calif.) and sandwich ELISAs were used to measure the amount cytokine released into the culture media. In brief: High binding microtiter 96-well plates were pre-coated with 100 μl of capture antibody in coating buffer (0.1 M carbonate buffer, pH 9.5) for IL-2, IL-4, IFNγ and TNFα and (0.2 M phosphate buffer, pH 6.5) for IL-10. The plates were sealed with plate film (Denville Scientific, South Plainfield, N.J.) and placed at 4° C. overnight. The plates were allowed to come to room temperature and washed with 0.1 M phosphate buffered saline-0.5% Tween 20 (PBS-Tw20). The non-specific binding was blocked using PBS-Tw20 and 1% bovine serum albumin. Standard/sample was then added to each well, the plates were sealed and incubated overnight at 4° C. The plate was washed three times with PBS-Tw20 and biotinylated secondary detection antibody and streptavidin/avidin enzyme conjugate (diluted in PBS-1% bovine serum albumin) were added to the wells and the plates incubated for 1.5 h. The plates were then washed and developed with (TMB) reagent (Pharmingen, San Diego, Calif.) for 30 minutes. After color development the plates were stopped with addition of IN sulfuric acid. Unknown sample cytokine levels were determined through comparison with a standard curve present on each plate using an ELISA reader ([…]: Bio Tek Instruments Incorporated, Winooski, Vt.). […]

Th2 cell clones = details: treated before activation; cited from earlier work
[3] = tested on: Th cells cultured with B cell clones; details: applied to Th cells before activation, cited from earlier work
Th1 cell clones = details: cited from earlier work
[4] = tested on: animals with fully expressed AA; details: cited from earlier work
[5] = tested on: collagen-induced arthritis; details: in vivo; cited from earlier work

| SMILES | Soft tissue swelling (dorsoplantar footpad width) compared with vehicle-treated AA rats (Lewis rats with AA [1]) | Decrease in bone loss compared to vehicle-treated AA rats (Lewis rats with AA [2]) [%] | Radiographic scores compared with vehicle controls (Lewis rats with AA [2]) | Ratio of IL-10/TNFα (IL-10/TNFα; DLN) | Ratio of IL-10/TNFα (IL-10/TNFα; PBL) | Ratio of IL-10/TNFα (IL-10/TNFα; SPL) | Ratio of anti- to pro-inflammatory cytokine production by macrophage cells (IL-10/TNFα; secondary lymphoid organs and peripheral blood) | IL-4 or IL-10 production by Th2 cell clones (Th2 cell clones) | IgG2a production ([3]; blockable by nadolol or IFNγ) | IgG1 production [3] | IL-2-dependent T cell proliferation (Th1 cell clones) | IL-2 and IFNγ production by Th1 cell clones (Th1 cell clones; treated before activation with antigen-specific B cells or anti-CD3 antibodies) | Joint inflammation and destruction [4] | Severity of collagen-induced arthritis [5] |
| --- | --- | --- | --- | --- | --- | --- | --- | --- | --- | --- | --- | --- | --- | --- |
| Cc1ccc(N(CC2=NCCN2)c2cccc(O)c2)cc1 [Phentolamine] | significantly decreased | 51 | significantly reduced | 1.0960 ± 0.1961 | 0.8067 ± 0.1762 | 3.3350 ± 0.6716 | increase | – | – | – | – | – | – | – |
| CC(C)(C)NCC(O)c1cc(O)cc(O)c1 (centres unmarked) [Terbutaline, terbutaline] | significantly decreased | ~50 | significantly reduced | 1.5060 ± 0.1642 | 0.4382 ± 0.0471 | 2.1370 ± 0.8285 | – | does not affect | inhibited | not | reduced | inhibits | – | – |
| O=P(O)(O)C(Cl)(Cl)P(=O)(O)O [clodronate] | – | – | – | – | – | – | – | – | – | – | – | – | significantly reduced | – |
| CC(C)(C)NCC(O)c1ccc(O)c(CO)c1 (centres unmarked) [salbutamol] | – | – | – | – | – | – | – | – | – | – | – | – | – | reduces the severity |
